Patent publication US20130023569A1, “Use of Deferiprone for Treatment and Prevention of Iron-Related Eye Disorders” (THE TRUSTEES OF THE UNIVERSITY OF PENNSYLVANIA, priority 2009, published 2013)

Tests used:
[1] = cited from earlier work
[2] = test system: Cp/Heph double knockout (DKO) mice; test: Survival (Kaplan-Meier) and ataxia of DKO mice, oral deferiprone; assay type: in vivo, mouse
Description: FIG. 7 is a Kaplan-Meier survival curve for deferiprone treated and untreated DKO mice.
In the following examples, double knockout (DKO) mice were used where the mice were genetically modified to generate a deficiency in the ferroxidase ceruloplasmin (Cp) and its homologue hephaestin (Heph). These mice develop age-related retinal degeneration due to retinal iron accumulation, as do humans. Since the knockout affects all tissues and organs, they also develop other symptoms of localized iron excess, with a simultaneous inability to adequately utilize the available iron for normal homeostasis, such as making new hemoglobin (they have low hematocrits). […]
(§1) Oral Administration: DKO mice were given deferiprone in their drinking water at a concentration of (1 mg/ml). […] The animals were sacrificed at various time points that are known to represent significant retinal and neurological damage in untreated animals and the eyes of sacrificed animals were analyzed as noted above.
(P<0.0001). The lifespan of the treated animals is an under-estimate, as these mice were sacrificed for iron quantification before they became sick. […]

[3] = test system: eye of Hra:(NZW)SPF rabbits; test: Sensitivity testing of eye drops: ocular irritation/corrosion (Draize, sodium fluorescein); assay type: in vivo, rabbit
Method: The ocular irritation/corrosion potential of the product was assessed by instilling approximately 0.1 mL at a concentration of about 13 mg/mL into the everted lower lid of the right eye of 3 male Hra:(NZW)SPF rabbits; the left eye served as the untreated control. Approximately 24 hours after instillation, the treated eyes were examined for corneal injury and washed using room-temperature physiological saline.

[4] = test system: transferrin Receptor (TfR) mRNA; test: TfR mRNA by qPCR in retina and RPE/choroid of wild type mice, oral deferiprone; assay type: in vivo, mouse; details: 1 mg/ml in drinking water PO for 11 days, n=4, vs untreated
Method: FIG. 2 is two graphs showing relative quantification of transferrin Receptor (TfR) mRNA levels in the retinas and retinal pigment epithelia (RPE)/choroids of deferiprone treated and untreated wild type mice in retinas (FIG. 2A) and in RPE/choroids (FIG. 2B). The treated mice (n=4) were given deferiprone for 11 days PO (1 mg/ml in the drinking water). […] Relative quantification of TfR expression is also shown for the RPE/choroids (See FIG. 2B) of treated in comparison to untreated animals.

[5] = test system: transferrin receptor messenger ribonucleic acid (TfR mRNA); test: TfR mRNA by qPCR in RPE/choroid after deferiprone eye drops; assay type: in vivo, mouse; details: eye drops 10 mg/ml three times a day for two months, right eye treated vs left eye control
Method: FIG. 3 is a graph illustrating the amount of transferrin receptor messenger ribonucleic acid (TfR mRNA) in the RPE/choroid from a treated eye and an untreated eye. The error bars represent SD of 3 PCR reactions using the same batch of mRNA template.
(§2) Eye Drop Administration: Beginning at age 5 months (when elevated retinal iron levels are detected), mice were given deferiprone eye drops (10 mg/ml) three times a day in one eye and control water eye drops in the other eye for two months, with the last drop given 2 h prior to sacrifice. Eyes were fixed in 2% paraformaldehyde/2% glutaraldehyde then sectioned for analysis of morphology (following staining with Toluidine Blue) and iron content (following staining with Perls' Prussian Blue). The number and length of retinal pigment epithelial (RPE) cell hypertrophy and photoreceptor atrophy areas were quantified in deferiprone-treated vs. water-treated control eyes. The intensity of Perls' stain in the ciliary body, retina and RPE were assessed in digital photomicrographs quantifying pixel density.
The mouse had the right eye (OD) treated with deferiprone topically (in the form of the eye drops, 10 mg/ml) three times a day for two months, whereas the left eye (OS) was used as an internal control. The last administration was given 2 h prior to sacrifice. Relative quantification of TfR mRNA was detected by qPCR. […]

[6] = test system: Cp/Heph double knockout (DKO) mice; test: Retinal histology of Cp/Heph DKO mice given oral deferiprone in drinking water; assay type: in vivo, mouse
Description: (§3) In the following examples, double knockout (DKO) mice were used where the mice were genetically modified to generate a deficiency in the ferroxidase ceruloplasmin (Cp) and its homologue hephaestin (Heph). These mice develop age-related retinal degeneration due to retinal iron accumulation, as do humans. Since the knockout affects all tissues and organs, they also develop other symptoms of localized iron excess, with a simultaneous inability to adequately utilize the available iron for normal homeostasis, such as making new hemoglobin (they have low hematocrits). These animals also develop neurological deficits, including ataxia and die at an early age, typically 6-9 months, although some may survive to 12 or 13 months with significant impaired ability to function The retinas of these Cp/Heph deficient mice accumulate iron in the RPE and photoreceptor outer segments in an age-dependent manner, then develop RPE and photoreceptor degeneration with subretinal neovascularization and sub-RPE wide-spaced collagen deposits. Cp/Heph DKO mice develop retinal, brain, liver, and heart iron overload with iron deficiency anemia. In untreated DKOs, iron gets trapped in the tissues and is not returned to the blood, leading to iron deficiency anemia. There is an age-dependent tissue iron buildup with retinal and brain degeneration.
as §2
Oral Administration: DKO mice were given deferiprone in their drinking water at a concentration of (1 mg/ml). The mice typically drink 5 ml of water a day and weigh 30 g. Mice began drinking deferiprone/water at age 7 months since that is the time such mice normally develop the retinal changes consistent with AMD. The animals were sacrificed at various time points that are known to represent significant retinal and neurological damage in untreated animals and the eyes of sacrificed animals were analyzed as noted above.

[7] = Hematocrit in DKO mice, oral deferiprone; assay type: in vivo, mouse
Description: as §3, with “Cp/Heph DKO mice develop retinal, brain, liver, and heart iron overload with iron deficiency anemia. In untreated DKOs, iron gets trapped in the tissues and is not returned to the blood, leading to iron deficiency anemia. There is an age-dependent tissue iron buildup with retinal and brain degeneration.” left out
as §1, with “above. […]” for “above.”

retinal iron = test: Perls' stain of retinal iron in DKO mice, oral deferiprone; assay type: in vivo; details: 13 month old DKO mouse, PO 1 mg/ml in drinking water for 9 months, vs untreated DKO
Description: FIG. 4 illustrates three Perls' stains of 7 and 13 month old untreated DKO mice retinas (FIGS. 4A and 4B, respectively) and of a treated 13 month old DKO mouse (FIG. 4C). The following abbreviations appear in the Figures: RPE, retinal pigment epithelium; ONL, outer nuclear layer; OPL, outer plexiform layer; IPL, inner plexiform layer; GCL, ganglion cell layer. Scale bar: 50 μm.
as §2, with “Eyes were fixed in 2% paraformaldehyde/2% glutaraldehyde then sectioned for analysis of morphology (following staining with Toluidine Blue) and iron content (following staining with Perls' Prussian Blue).” left out
as §1, with “above. […]” for “above.”

Cc1c(O)c(=O)ccn1C [deferiprone]
half life ([1]; humans): about 2 hours
agranulocytosis, share of patients ([1]; thalassemia patients, oral doses 75 to 100 mg/kg/day): about 1%
ataxia ([2]; DKO mice, 1 mg/ml in drinking water, 2 mice at 14 months and 2 at 12 months): some mild ataxia
median survival ([2]; treated DKO mice, LogRank test, untreated 7 months, P<0.0001): 13 months
eye irritation, Draize score ([3]; 0.1 mL of about 13 mg/mL into right eye of 3 male rabbits, 1, 24, 48 and 72 hours after instillation): 0
corneal injury, sodium fluorescein test ([3]; about 24 hours post dose, about 13 mg/mL, rabbits): no injury to the cornea
TfR mRNA levels in retinas (relative quantification, standardized to 18S RNA) [4]: significant up regulation of TfR mRNA levels
TfR expression in RPE/choroids (relative quantification) ([4]; P<0.05): significant difference
TfR mRNA in RPE/choroid (relative quantification) [5]: siqnificant TfR mRNA increase
retina appearance (toluidine blue plastic sections) ([6]; 14 month Cp/Heph knockout, oral deferiprone for 5 months, FIG. 1): appears normal except for a few mildly hypertrophic RPE cells
retinal degeneration and damage ([6]; DKO mice 12-14 months old, deferiprone 1 mg/ml in drinking water for 5-7 months): almost no retinal degeneration and damage
retinal tissue histology ([6]; DKO mice, deferiprone 1 mg/ml PO in drinking water for 6-9 months, FIG. 5): near normal tissue
areas of RPE hypertrophy, share of the retina involved ([6]; most severely affected regions, DKO mice, deferiprone 1 mg/ml PO for 6-9 months, untreated more than 90%): < 10%
hematocrit, mean value ([7]; deferiprone-treated DKO mice n=7, untreated mean 24.6%, P<0.05): 36.7%
hematocrit at time of sacrifice ([7]; treated DKO mice 12 and 14 months old, 1 mg/ml in drinking water 5-7 months, untreated 19-26%): 30-50%
retinal iron (Perls' stain) (retinal iron): decreased retinal iron
